In assay [1] the test system is mTORC1 activity: phosphorylated 4E-BP1 Thr37/46 (p4E-BP1 Thr37/46) in PC3 cells. In words: mTOR target engagement assay, immunofluorescent cell-based, mTORC1 readout. Conditions: 90 min treatment, read-out: P4EBP1 IC50. Here is the method:
The target engagement of mTOR kinase inhibitors was evaluated using an immunofluorescent cell-based assay. In this assay, inhibition of mTORC1 activity was measured by the reduction in the level of phosphorylated 4E-BP1Thr37/46 (p4E-BP1 Thr37/46), and inhibition of mTORC2 activity was measured by the reduction of phosphorylated AKTSer473 (pAKT S473).
PC3 cells (prostate tumor cell-line that contains a mutation in the tumor suppressor PTEN, that promotes the phosphorylation and activation of AKT and 4E-BP1) were used in the immunofluorescence assay. PC3 cells were seeded on 384 well plates (black clear bottom, Matrix #4332) overnight. PC3 cells were then treated with 40 μl of the serially diluted test compounds (in 5% fetal bovine serum, F12 medium containing 0.25% DMSO) for ninety minutes at 37° C. The test compound solution was removed, and the plates were washed gently two times with 25 μl phosphate buffered saline (PBS). The cells were fixed by adding 25 μl of Prefer reagent (from Anatech LTD, Cat#414, a glyoxal fixative for fixing proteins within a cell) for sixty minutes followed by three washes with PBS. 5% Goat serum in PBS/0.3% Triton was used to block non-specific binding (60 minutes).
The primary antibodies targeting pAKT S473 and p4E-BP1 Thr37/46 were diluted into PBS/0.3% Triton and incubated with the cells overnight at 4° C. The antibodies targeting pAKTS473 (Cat#4085, Cell signaling) and p4E-BP1 Thr37/46 (Cat#2855, Cell signaling) were used at a 1:100 dilution. Plates were washed three times with PBS/0.1% Tween 20 before adding the secondary antibody at a 1:200 dilution. (goat anti-rabbit containing a fluorescent label, Alexa Fluor 488, Cat#A11008, Invitrogen) in PBS/0.3% Triton for 60 minutes.
Finally, the plates were washed three times with PBS/0.1% Tween 20 and the fluorescent intensity was read using an Analyst HT from Molecular Devices. The fluorescent intensity values from the serially diluted compound treatment group were analyzed using the Xlfit 4 program ([…]) (Formula 205: Y=Bottom+(Top-Bottom)/(1+(IC50/X)^Hillslope) to generate the IC50 value. Where Top is the maximum signal without Compound (+DMSO only) and Bottom represents maximum inhibition. Y is the fluorescence at some compound concentration. The control used to determine the fluorescent intensities for 100% pAKT S473 or 100% phosphorylated p4E-BP1 Thr37/46 were measured from untreated wells that contained only DMSO, instead of test compound.

The test system of assay [2] is mTORC2 activity: phosphorylated AKT Ser473 (pAKT S473) in PC3 cells. Briefly: mTOR target engagement assay, immunofluorescent cell-based, mTORC2 readout. The conditions noted are these: 90 min treatment. An outline of the steps:
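Read-out is immunofluorescence intensity, normalized to DMSO-only wells and fitted to a sigmoidal Hill equation for IC50. The mTORC1 arm probes phospho-4E-BP1 Thr37/46 and the mTORC2 arm phospho-AKT Ser473.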

The target in another assay is human mTOR enzyme (Homo sapiens, UniProt P42345). In words: HTRF mTOR enzyme (kinase) assay. Conditions: 5 μM ATP, 0.2 μM GST-S6K, read-out: hMTOR IC50. The assay is classed as biochemical. A general note: Time-resolved FRET reads energy transfer from a long-lived donor to a nearby acceptor.
Where [3] appears, read: Homo sapiens, PC-3, 1.5 h, rated class.
The mark [4] stands for this setting: Homo sapiens, PC-3, 1.5 h, numeric value.

The IC50 is the point on the concentration scale where inhibition reaches its midpoint.

The structures appear in SMILES notation. Like-named read-outs stand apart in the source and are kept apart here.

Sequence of human mTOR enzyme (P42345 1360-2549 limits assumed): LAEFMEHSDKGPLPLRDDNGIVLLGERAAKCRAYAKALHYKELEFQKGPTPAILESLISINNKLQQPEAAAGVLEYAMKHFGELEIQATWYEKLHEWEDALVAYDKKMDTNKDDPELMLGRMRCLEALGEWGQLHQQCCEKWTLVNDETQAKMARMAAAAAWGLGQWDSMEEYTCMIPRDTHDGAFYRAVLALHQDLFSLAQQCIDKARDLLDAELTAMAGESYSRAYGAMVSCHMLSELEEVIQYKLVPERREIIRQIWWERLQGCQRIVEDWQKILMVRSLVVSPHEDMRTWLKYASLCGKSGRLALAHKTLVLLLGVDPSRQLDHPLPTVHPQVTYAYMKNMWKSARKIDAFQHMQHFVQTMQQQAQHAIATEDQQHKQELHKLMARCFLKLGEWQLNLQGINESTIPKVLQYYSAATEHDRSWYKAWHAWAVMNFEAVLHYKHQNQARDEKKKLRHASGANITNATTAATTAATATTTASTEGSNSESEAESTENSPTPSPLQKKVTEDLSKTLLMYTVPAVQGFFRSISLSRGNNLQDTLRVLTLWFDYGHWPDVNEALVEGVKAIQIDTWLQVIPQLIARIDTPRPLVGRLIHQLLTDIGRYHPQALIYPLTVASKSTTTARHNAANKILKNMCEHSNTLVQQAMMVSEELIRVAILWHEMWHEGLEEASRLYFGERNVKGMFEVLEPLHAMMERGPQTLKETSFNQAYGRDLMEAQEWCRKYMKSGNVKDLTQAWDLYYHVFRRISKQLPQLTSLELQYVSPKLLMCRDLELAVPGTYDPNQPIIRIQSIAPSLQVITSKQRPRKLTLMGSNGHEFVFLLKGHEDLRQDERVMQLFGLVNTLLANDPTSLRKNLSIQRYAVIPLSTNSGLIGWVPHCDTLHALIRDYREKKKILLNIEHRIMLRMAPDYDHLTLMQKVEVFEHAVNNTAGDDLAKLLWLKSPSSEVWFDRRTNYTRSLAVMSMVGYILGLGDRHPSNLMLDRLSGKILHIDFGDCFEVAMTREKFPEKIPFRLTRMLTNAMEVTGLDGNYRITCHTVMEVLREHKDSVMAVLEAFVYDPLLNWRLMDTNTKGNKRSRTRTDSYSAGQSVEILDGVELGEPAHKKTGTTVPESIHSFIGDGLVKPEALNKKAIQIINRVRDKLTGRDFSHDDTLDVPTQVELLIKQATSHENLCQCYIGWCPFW

On to `C[C@]1(C(=O)O)CC[C@H](c2nc3c(-c4ccc(-c5ccccc5)nc4)cnn3c(N)c2Br)CC1` [Compound 1, (1R,4R)-4-(7-amino-6-bromo-3-(6-phenylpyridin-3-yl)pyrazolo[1,5-a]pyrimidin-5-yl)-1-methylcyclohexanecarboxylic acid], for which the figures for the 50% inhibitory concentration (IC50) (in assay [1] (numeric value); in assay [2] (numeric value); at human mTOR enzyme (numeric value)) were 850 nM, 275 nM and 1.33 nM, respectively.
Turning to `COCCO[C@]1(C(=N)N)CC[C@@H](c2nc3c(-c4cnn(-c5ccccc5)c4)cnn3c(N)c2S(C)(=O)=O)CC1` [Compound 120, (1R,4R)-4-(7-amino-6-(methylsulfonyl)-3-(1-phenyl-1H-pyrazol-4-yl)pyrazolo[1,5-a]pyrimidin-5-yl)-1-(2-methoxyethoxy)cyclohexanecarboximidamide], the IC50 in assay [1] (setting [3]) was 100 to 1000 nM; in assay [2] (setting [3]) it was 100 to 1000 nM; at human mTOR enzyme (rated class), 1 to 100 nM.
Regarding `COCCO[C@]1(C(N)=O)CC[C@@H](c2nc3c(-c4ccc(-c5ncc[nH]5)nc4)cnn3c(N)c2C(C)=O)CC1` [Compound 112, (1R,4R)-4-(3-(6-(1H-imidazol-2-yl)pyridin-3-yl)-6-acetyl-7-aminopyrazolo[1,5-a]pyrimidin-5-yl)-1-(2-methoxyethoxy)cyclohexanecarboxamide], the IC50 (in assay [1] (setting [3]); in assay [2] (setting [3]); at human mTOR enzyme (rated class)) was 1 to 100 nM each time.
Turning to `CC(=O)c1c(C2CCC(O)(CO)CC2)nc2c(-c3ccc(-c4cscn4)nc3)cnn2c1N` (single isomer, unassigned) [Compound 144, 1-(7-amino-5-(4-hydroxy-4-(hydroxymethyl)-cyclohexyl)-3-(6-(thiazol-4-yl)pyridin-3-yl)pyrazolo[1,5-a]pyrimidin-6-yl)ethanone], the IC50 in assay [1] (setting [3]) fell in the range of 100 to 1000 nM; in assay [2] (setting [3]), 100 to 1000 nM; at human mTOR enzyme (rated class), 1 to 100 nM.
As to `COCCO[C@]1(c2nnc(C)o2)CC[C@@H](c2nc3c(-c4cnn(-c5ccccc5)c4)cnn3c(N)c2S(C)(=O)=O)CC1` [Compound 109], the figures for the IC50 (in assay [1] (setting [3]); in assay [2] (setting [3]); on human mTOR enzyme (rated class)) were 2000 to 5000 nM, 100 to 1000 nM and 1 to 100 nM, respectively.
For `COCCO[C@]1(C(=O)O)CC[C@@H](c2nc3c(-c4ccc(-c5ccc(OC)c(F)c5)nc4)cnn3c(N)c2Br)CC1` [Compound 68, (1R,4R)-4-(7-amino-6-bromo-3-(6-(3-fluoro-4-methoxyphenyl)-pyridin-3-yl)-pyrazolo[1,5-a]pyrimidin-5-yl)-1-(2-methoxyethoxy) cyclohexanecarboxylic acid] the same measures were 2000 to 5000 nM, 2000 to 5000 nM and 1 to 100 nM.
Taken in the same sequence, the figures for `CO[C@]1(C(=O)O)CC[C@H](c2nc3c(-c4cnn(-c5ccccc5)c4)cnn3c(N)c2Br)CC1` [Compound 31, (1S,4S)-4-(7-amino-6-bromo-3-(1-phenyl-1H-pyrazol-4-yl)pyrazolo[1,5-a]pyrimidin-5-yl)-1-methoxycyclohexane-carboxylic acid] were 100 to 1000 nM, 1 to 100 nM and 1 to 100 nM.
Taken in the same sequence, the figures for `COCCO[C@]1(c2nnc[nH]2)CC[C@@H](c2nc3c(-c4cnn(-c5ccccc5)c4)cnn3c(N)c2S(C)(=O)=O)CC1` [Compound 127, 5-((1R,4R)-4-(2-methoxyethoxy)-4-(4H-1,2,4-triazol-3-yl)cyclohexyl)-6-(methylsulfonyl)-3-(1-phenyl-1H-pyrazol-4-yl)pyrazolo[1,5-a]pyrimidin-7-amine] were 100 to 1000 nM, 100 to 1000 nM and 1 to 100 nM.
With `COCCO[C@]1(C(=O)N(C)C)CC[C@@H](c2nc3c(-c4cnn(-c5ccccc5)c4)cnn3c(N)c2S(C)(=O)=O)CC1` [Compound 91, (1R,4R)-4-(7-amino-6-(methylsulfonyl)-3-(1-phenyl-1H-pyrazol-4-yl)pyrazolo[1,5-a]pyrimidin-5-yl)-1-(2-methoxyethoxy)-N,N-dimethylcyclohexane-carboxamide], the concentration for half-maximal inhibition (IC50) in assay [1] (setting [3]) was in the range of 1000 to 2000 nM; in assay [2] (setting [3]) it was 100 to 1000 nM; on human mTOR enzyme (rated class), 1 to 100 nM.
Consider `COCCO[C@]1(C(N)=O)CC[C@@H](c2nc3c(-c4ccc(-c5ccccc5)nc4)cnn3c(N)c2S(C)(=O)=O)CC1` [Compound 111], for which the results for the IC50 (in assay [1] (setting [4]); in assay [2] (setting [4]); on human mTOR enzyme (numeric value)) were 141 nM, 48 nM and 1 nM, respectively.
`COCCO[C@]1(C(=O)c2nnc[nH]2)CC[C@@H](c2cc(N)n3ncc(-c4ccc(-c5ccccc5)nc4)c3n2)CC1` [Compound 126, ((1R,4R)-4-(7-amino-3-(6-phenylpyridin-3-yl)pyrazolo[1,5-a]pyrimidin-5-yl)-1-(2-methoxyethoxy)cyclohexyl)(4H-1,2,4-triazol-3-yl)methanone]: the concentration for half-maximal inhibition (IC50) in assay [1] (setting [3]) was 1000 to 2000 nM; in assay [2] (setting [3]) it was 100 to 1000 nM; at human mTOR enzyme (rated class), 1 to 100 nM.
For `COCCO[C@]1(C(=O)O)CC[C@@H](c2nc3c(-c4ccc(-c5ccn(C)n5)nc4)cnn3c(N)c2S(C)(=O)=O)CC1` [Compound 42, (1R,4R)-4-(7-amino-3-(6-(1-methyl-1H-pyrazol-3-yl)pyridin-3-yl)-6-(methylsulfonyl)-pyrazolo[1,5-a]-pyrimidin-5-yl)-1-(2-methoxyethoxy)-cyclohexanecarboxylic acid] the same measures were 5000 to 15000 nM, 2000 to 5000 nM and 1 to 100 nM.
Taken in the same sequence, the figures for `COCCO[C@]1(C(=O)NOC)CC[C@@H](c2nc3c(-c4ccc(-c5ccccc5)nc4)cnn3c(N)c2S(C)(=O)=O)CC1` [Compound 105, (1R,4R)-4-(7-amino-6-(methylsulfonyl)-3-(6-phenylpyridin-3-yl)pyrazolo[1,5-a]pyrimidin-5-yl)-N-methoxy-1-(2-methoxyethoxy)-cyclohexane-carboxamide] were 100 to 1000 nM, 1 to 100 nM and 1 to 100 nM.
For `COCCO[C@]1(C(N)=O)CC[C@@H](c2nc3c(-c4ccc(-c5ncc[nH]5)nc4)cnn3c(N)c2S(C)(=O)=O)CC1` [Compound 116] the same measures were 1 to 100 nM, 100 to 1000 nM and 1 to 100 nM.
On to `COCCO[C@]1(c2nnn[nH]2)CC[C@@H](c2nc3c(-c4cnn(-c5ccccc5)c4)cnn3c(N)c2S(C)(=O)=O)CC1` [Compound 118, 5-((1R,4R)-4-(2-methoxyethoxy)-4-(1H-tetrazol-5-yl)cyclohexyl)-6-(methylsulfonyl)-3-(1-phenyl-1H-pyrazol-4-yl)pyrazolo[1,5-a]pyrimidin-7-amine], for which the results for the IC50 (in assay [1] (setting [3]); in assay [2] (setting [3]); at human mTOR enzyme (rated class)) were 100 to 1000 nM, 100 to 1000 nM and 1 to 100 nM, respectively.
For `C[C@]1(C(=O)O)CC[C@H](c2nc3c(-c4ccc(-c5ccccc5)nc4)cnn3c(N)c2C#N)CC1` [Compound 25, (1R,4R)-4-(7-amino-6-cyano-3-(6-phenylpyridin-3-yl)pyrazolo[1,5-a]pyrimidin-5-yl)-1-methylcyclohexanecarboxylic acid], the 50% inhibitory concentration (IC50) lay within 100 to 1000 nM in assay [1] (setting [3]), 100 to 1000 nM in assay [2] (setting [3]) and 1 to 100 nM at human mTOR enzyme (rated class).
As for `COCCO[C@]1(C(=O)NOC)CC[C@@H](c2nc3c(-c4ccc(-c5ccccc5)nc4)cnn3c(N)c2C(C)=O)CC1` [Compound 103, (1R,4R)-4-(6-acetyl-7-amino-3-(6-phenylpyridin-3-yl)pyrazolo[1,5-a]pyrimidin-5-yl)-N-methoxy-1-(2-methoxyethoxy)-cyclohexane-carboxamide], the IC50 fell in the range of 100 to 1000 nM in assay [1] (setting [3]), 100 to 1000 nM in assay [2] (setting [3]) and 1 to 100 nM on human mTOR enzyme (rated class).
As for `COCCO[C@]1(C(=O)NCCO)CC[C@@H](c2nc3c(-c4cnn(-c5ccccc5)c4)cnn3c(N)c2S(C)(=O)=O)CC1` [Compound 92, (1R,4R)-4-(7-amino-6-(methylsulfonyl)-3-(1-phenyl-1H-pyrazol-4-yl)pyrazolo[1,5-a]pyrimidin-5-yl)-N-(2-hydroxyethyl)-1-(2-methoxyethoxy)-cyclohexane-carboxamide], the IC50 in assay [1] (setting [3]) was in the range of 100 to 1000 nM; in assay [2] (setting [3]), 1 to 100 nM; at human mTOR enzyme (rated class) it was 1 to 100 nM.

The values above are taken from patent publication US8883801B2, “Substituted pyrazolo[1,5-a]pyrimidines as mTOR inhibitors” (Merck Sharp & Dohme Corp., priority 2010, dated 2014).
